Source: ChEMBL document CHEMBL5360622, “Leucettinibs, a Class of DYRK/CLK Kinase Inhibitors Inspired by the Marine Sponge Natural Product Leucettamine B” (J Med Chem, 2023)

Tests used:
[1] = target: Casein kinase I isoform epsilon (Homo sapiens, UniProt P49674)
[2] = target: Cyclin-dependent kinase 5/CDK5 activator 1 (Homo sapiens, UniProt Q00535); assay type: cell-based, Sf9
[3] = target: Dual specificity protein kinase CLK1 (Homo sapiens, UniProt P49759); assay type: cell-based, Sf9
[4] = target: Dual specificity protein kinase CLK2 (Homo sapiens, UniProt P49760)
Chain of Dual specificity protein kinase CLK2 (P49760 whole entry): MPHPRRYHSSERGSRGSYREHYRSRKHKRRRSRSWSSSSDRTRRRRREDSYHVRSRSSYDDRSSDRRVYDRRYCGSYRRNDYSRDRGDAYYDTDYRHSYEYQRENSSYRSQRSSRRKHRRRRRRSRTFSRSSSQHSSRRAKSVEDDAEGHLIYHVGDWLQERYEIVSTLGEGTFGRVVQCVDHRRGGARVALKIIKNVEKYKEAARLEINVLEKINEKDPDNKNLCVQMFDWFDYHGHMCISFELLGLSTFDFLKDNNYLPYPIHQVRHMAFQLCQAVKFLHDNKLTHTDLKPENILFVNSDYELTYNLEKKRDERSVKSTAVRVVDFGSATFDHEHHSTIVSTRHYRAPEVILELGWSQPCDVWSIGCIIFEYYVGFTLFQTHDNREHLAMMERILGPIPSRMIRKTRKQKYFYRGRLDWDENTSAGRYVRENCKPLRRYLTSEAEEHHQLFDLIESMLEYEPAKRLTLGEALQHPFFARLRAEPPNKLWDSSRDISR

[5] = target: Dual specificity protein kinase CLK3 (Homo sapiens, UniProt P49761); assay type: cell-based, Sf9
Chain of Dual specificity protein kinase CLK3 (P49761 whole entry): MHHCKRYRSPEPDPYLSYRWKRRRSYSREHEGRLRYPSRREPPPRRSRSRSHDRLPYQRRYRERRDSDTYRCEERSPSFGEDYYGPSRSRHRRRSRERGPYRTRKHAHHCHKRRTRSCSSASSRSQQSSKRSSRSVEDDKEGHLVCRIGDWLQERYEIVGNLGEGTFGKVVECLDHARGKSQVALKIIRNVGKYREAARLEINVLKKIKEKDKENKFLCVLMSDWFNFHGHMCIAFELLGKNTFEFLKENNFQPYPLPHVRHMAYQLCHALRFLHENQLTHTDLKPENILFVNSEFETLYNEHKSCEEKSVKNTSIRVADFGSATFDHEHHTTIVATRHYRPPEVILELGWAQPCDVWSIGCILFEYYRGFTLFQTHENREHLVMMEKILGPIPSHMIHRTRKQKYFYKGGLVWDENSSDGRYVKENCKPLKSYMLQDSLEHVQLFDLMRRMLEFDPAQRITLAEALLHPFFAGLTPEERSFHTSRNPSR

[6] = target: Dual specificity protein kinase CLK4 (Homo sapiens, UniProt Q9HAZ1)
Chain of Dual specificity protein kinase CLK4 (Q9HAZ1 whole entry): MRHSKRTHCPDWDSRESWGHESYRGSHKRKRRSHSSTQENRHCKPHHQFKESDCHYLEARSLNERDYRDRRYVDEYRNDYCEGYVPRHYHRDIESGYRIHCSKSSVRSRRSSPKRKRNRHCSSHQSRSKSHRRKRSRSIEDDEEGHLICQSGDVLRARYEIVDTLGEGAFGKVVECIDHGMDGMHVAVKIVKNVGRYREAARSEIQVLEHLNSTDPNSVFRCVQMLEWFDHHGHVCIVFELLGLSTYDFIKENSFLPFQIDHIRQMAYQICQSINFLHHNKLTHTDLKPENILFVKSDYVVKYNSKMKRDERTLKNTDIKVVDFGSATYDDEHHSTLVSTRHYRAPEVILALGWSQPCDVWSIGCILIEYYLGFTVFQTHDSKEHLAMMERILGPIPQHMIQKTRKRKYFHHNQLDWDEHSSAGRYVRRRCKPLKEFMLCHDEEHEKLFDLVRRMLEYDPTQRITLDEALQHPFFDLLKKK

[7] = target: T1, Dual specificity tyrosine-phosphorylation-regulated kinase 2 (Homo sapiens, UniProt Q92630)
T1 sequence (Q92630 whole entry): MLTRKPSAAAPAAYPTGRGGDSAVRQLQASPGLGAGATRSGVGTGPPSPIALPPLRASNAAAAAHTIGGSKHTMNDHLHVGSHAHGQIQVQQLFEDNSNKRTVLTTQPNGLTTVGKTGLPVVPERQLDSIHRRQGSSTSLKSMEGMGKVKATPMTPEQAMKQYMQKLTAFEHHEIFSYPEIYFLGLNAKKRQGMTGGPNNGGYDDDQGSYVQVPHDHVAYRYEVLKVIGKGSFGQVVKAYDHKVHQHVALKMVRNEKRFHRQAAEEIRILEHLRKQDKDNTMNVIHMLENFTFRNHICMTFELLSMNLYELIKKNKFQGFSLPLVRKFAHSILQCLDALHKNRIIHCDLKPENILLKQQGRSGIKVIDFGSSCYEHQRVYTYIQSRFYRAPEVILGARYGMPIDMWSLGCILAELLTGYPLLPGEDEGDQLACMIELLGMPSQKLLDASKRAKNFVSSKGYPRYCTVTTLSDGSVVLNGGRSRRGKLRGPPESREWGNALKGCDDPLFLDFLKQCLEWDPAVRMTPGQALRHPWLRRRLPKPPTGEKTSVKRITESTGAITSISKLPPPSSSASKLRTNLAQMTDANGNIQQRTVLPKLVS

[8] = target: T2, Dual specificity tyrosine-phosphorylation-regulated kinase 4 (Homo sapiens, UniProt Q9NR20)
T2 sequence (Q9NR20 whole entry): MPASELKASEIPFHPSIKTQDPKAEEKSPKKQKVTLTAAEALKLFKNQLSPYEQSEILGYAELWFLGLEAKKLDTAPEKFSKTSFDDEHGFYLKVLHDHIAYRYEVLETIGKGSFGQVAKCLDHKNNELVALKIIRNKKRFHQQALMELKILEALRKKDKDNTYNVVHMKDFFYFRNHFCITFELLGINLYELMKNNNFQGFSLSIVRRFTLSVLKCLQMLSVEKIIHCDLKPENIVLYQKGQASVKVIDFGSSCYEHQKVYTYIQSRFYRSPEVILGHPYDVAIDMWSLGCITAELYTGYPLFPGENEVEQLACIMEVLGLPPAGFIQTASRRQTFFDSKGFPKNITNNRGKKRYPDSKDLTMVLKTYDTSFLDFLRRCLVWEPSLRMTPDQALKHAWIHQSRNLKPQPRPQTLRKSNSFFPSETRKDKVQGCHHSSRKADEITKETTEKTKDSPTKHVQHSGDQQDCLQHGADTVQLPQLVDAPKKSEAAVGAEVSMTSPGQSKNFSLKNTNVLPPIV

[9] = target: Glycogen synthase kinase-3 beta (Homo sapiens, UniProt P49841); assay type: cell-based, Sf9
Chain of Glycogen synthase kinase-3 beta (P49841 whole entry): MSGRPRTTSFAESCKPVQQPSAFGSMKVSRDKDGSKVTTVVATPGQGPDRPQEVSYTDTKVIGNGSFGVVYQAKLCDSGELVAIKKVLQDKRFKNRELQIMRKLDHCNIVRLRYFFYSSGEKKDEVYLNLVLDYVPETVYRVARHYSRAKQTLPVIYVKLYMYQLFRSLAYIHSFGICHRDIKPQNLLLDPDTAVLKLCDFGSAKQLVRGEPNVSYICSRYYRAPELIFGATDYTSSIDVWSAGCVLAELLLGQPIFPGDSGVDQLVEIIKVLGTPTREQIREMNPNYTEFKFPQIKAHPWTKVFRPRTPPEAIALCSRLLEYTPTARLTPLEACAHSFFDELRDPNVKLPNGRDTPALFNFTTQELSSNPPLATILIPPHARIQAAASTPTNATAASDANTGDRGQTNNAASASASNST

[10] = target: T3, Dual specificity tyrosine-phosphorylation-regulated kinase 3 (Homo sapiens, UniProt O43781)
T3 sequence (O43781 whole entry): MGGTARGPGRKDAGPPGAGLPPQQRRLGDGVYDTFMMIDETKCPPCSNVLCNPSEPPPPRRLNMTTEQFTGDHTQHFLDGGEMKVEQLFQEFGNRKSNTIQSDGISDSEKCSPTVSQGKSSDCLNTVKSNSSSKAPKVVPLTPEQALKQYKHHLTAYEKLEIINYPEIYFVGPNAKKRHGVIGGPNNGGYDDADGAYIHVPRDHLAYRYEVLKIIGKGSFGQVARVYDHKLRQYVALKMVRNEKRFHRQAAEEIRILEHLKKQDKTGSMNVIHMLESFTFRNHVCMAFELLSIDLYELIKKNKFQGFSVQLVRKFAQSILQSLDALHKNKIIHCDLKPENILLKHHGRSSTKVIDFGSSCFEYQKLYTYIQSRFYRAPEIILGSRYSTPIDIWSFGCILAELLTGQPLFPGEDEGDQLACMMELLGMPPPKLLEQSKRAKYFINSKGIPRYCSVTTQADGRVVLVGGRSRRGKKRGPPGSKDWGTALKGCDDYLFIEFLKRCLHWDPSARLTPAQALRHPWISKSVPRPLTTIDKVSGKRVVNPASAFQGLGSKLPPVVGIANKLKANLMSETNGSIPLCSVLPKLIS

Chain of Casein kinase I isoform epsilon (P49674 whole entry, canonical isoform): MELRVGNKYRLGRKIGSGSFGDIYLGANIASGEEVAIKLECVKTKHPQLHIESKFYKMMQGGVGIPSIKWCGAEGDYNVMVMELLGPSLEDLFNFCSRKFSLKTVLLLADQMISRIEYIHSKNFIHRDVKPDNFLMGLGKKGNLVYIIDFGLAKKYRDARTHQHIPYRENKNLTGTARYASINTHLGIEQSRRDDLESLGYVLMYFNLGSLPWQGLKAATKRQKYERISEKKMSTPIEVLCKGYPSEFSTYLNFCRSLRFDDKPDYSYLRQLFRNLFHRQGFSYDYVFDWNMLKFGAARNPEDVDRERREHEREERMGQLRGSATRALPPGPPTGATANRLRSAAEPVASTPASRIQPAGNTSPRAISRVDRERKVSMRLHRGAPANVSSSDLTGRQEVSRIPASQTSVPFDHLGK
Chain of Cyclin-dependent kinase 5/CDK5 activator 1 (Q00535 whole entry): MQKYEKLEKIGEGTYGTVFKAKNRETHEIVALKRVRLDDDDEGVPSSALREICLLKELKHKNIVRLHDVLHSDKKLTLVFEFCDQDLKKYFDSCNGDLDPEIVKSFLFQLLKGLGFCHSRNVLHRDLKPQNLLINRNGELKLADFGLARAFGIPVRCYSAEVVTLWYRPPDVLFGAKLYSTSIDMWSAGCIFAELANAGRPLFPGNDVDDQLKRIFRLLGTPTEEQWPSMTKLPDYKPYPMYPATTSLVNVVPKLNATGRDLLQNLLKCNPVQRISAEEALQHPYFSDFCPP
Chain of Cyclin-dependent kinase 5/CDK5 activator 1 (Q15078 whole entry, further chain): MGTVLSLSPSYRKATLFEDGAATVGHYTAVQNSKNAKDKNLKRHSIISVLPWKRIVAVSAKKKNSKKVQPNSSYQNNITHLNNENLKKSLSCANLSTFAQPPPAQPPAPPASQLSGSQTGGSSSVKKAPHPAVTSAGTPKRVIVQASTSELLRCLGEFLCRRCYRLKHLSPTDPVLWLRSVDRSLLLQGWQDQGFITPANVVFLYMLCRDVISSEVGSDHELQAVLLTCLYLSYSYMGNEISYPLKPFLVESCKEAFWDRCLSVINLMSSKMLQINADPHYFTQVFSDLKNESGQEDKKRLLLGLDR
Chain of Dual specificity protein kinase CLK1 (P49759 whole entry): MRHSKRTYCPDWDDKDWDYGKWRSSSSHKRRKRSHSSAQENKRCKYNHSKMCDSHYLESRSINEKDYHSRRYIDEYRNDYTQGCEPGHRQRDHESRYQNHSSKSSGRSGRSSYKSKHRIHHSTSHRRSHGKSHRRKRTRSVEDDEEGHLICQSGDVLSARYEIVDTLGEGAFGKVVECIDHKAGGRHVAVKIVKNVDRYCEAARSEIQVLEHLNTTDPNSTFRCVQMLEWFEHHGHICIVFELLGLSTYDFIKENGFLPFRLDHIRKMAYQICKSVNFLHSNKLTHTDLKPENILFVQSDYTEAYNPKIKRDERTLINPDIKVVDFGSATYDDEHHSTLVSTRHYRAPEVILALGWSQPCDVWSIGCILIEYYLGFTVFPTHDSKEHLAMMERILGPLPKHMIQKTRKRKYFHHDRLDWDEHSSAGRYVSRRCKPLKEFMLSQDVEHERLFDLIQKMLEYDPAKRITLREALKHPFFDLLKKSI

Compound	IC50 [1] [µM]	IC50 [2] [µM]	IC50 [3] [nM]	IC50 [4] [nM]	IC50 [5] [nM]	IC50 [6] [nM]	IC50 [7] [nM]	IC50 [8] [nM]	IC50 [9] [µM]	IC50 [10] [nM]
CN1CC[C@@](C)(NC2=N/C(=C\c3ccc4ncsc4c3)C(=O)N2)C1=O (stereo in doubt)	> 10	> 10	11	28	1130		795	1700	1.74	390
O=C1NC(Nc2cccc(C(F)(F)F)c2)=N/C1=C\c1ccc2ncsc2c1	> 10	> 10	193	696	7030		2500	> 10000	> 10	5730
C[C@@H]1CCCC[C@H]1NC1=N/C(=C\c2ccc3ncsc3c2)C(=O)N1 (racemic)	> 10	> 10	17	114	914		549	538	8.36	531
O=C1NC(NC2CCOCC2)=N/C1=C\c1ccc2ncsc2c1	> 10	> 10	24		1280			1260	> 10	1670
COC(=O)[C@H](Cc1ccccc1)NC1=N/C(=C\c2ccc3ncsc3c2)C(=O)N1	> 10	> 10	28		1850		216	445	> 10	
CC(C)C[C@H](CF)NC1=N/C(=C\c2ccc3ncsc3c2)C(=O)N1	> 10	> 10	9	27	403		433	927	1.56	657
COC(=O)[C@@H](Cc1ccccc1)NC1=N/C(=C\c2ccc3ncsc3c2)C(=O)N1	> 10	> 10	122		> 10000		8380	6820	> 10	
CC(C)C[C@@H](CF)NC1=N/C(=C\c2ccc3ncsc3c2)C(=O)N1	> 10	> 10	7	33	1390		263	385	6.29	227
O=C1NC(NC2CCCCC2)=N/C1=C\c1ccc2scnc2c1	> 10	> 10	> 10000	> 10000	> 10000	7160	> 10000		> 10	
CC(C)C[C@H](CO)NC1=N/C(=C\c2ccc3ncsc3c2)C(=O)N1	> 10	> 10	19		484		953	764	2.52	394
O=C1NC(NC[C@@H](O)c2ccccc2)=N/C1=C\c1ccc2ncsc2c1		> 10	13				16	181	2.6	
C[C@@H](NC1=N/C(=C\c2ccc3ncsc3c2)C(=O)N1)C1CCCCC1	> 10	> 10	44	304	3020	36	3610	6000	> 10	
O=C1NC(Nc2ccc(N3CCOCC3)cc2)=N/C1=C\c1ccc2ncsc2c1	> 10	> 10		> 10000	> 10000	4930	> 10000	> 10000	> 10	> 10000
CC(NC1=N/C(=C\c2ccc3ncsc3c2)C(=O)N1)C12CC3CC(CC(C3)C1)C2 (racemic)	> 10	> 10		1320	5110	210	> 10000	> 10000	> 10	> 10000
O=C1NC(NC2CCCNC2=O)=N/C1=C\c1ccc2ncsc2c1 (racemic)	> 10	> 10		1320	1680	35	2090	7290	> 10	2800

Other lines, results leading:

IC50 [1] [µM]	IC50 [2] [µM]	IC50 [3] [nM]	IC50 [4] [nM]	IC50 [5] [nM]	IC50 [6] [nM]	IC50 [7] [nM]	IC50 [8] [nM]	IC50 [9] [µM]	IC50 [10] [nM]	Compound
> 10	> 10	55	121	2130	29	798	1130	4.12		CN1CCN(c2cnc(NC3=N/C(=C\c4ccc5ncsc5c4)C(=O)N3)cn2)CC1
> 10	> 10	49		546		4980	6490	9.37	745	CC(C)C[C@@H](CO)NC1=N/C(=C\c2ccc3ncsc3c2)C(=O)N1
> 10	> 10	270	2830	> 10000	172	> 10000	> 10000	> 10		O=C1NC(NC2CCCCCC2)=N/C1=C\c1ccc2nnsc2c1
> 10	> 10	17	121	211	5	125	1380	3.6		CC(C)C[C@H](COC1CC1)NC1=N/C(=C\c2ccc3ncsc3c2)C(=O)N1
> 10	> 10	17	183	212		1080	944	4.57	873	O=C1NC(NC2CC3(CCC3)C2)=N/C1=C\c1ccc2ncsc2c1
> 10	> 10	125	450	927		1720	1680	> 10	1480	CN1CC[C@](C)(NC2=N/C(=C\c3ccc4ncsc4c3)C(=O)N2)C1=O (stereo in doubt)
	> 10	12				417	4320	> 10		O=C1NC(NC[C@H](O)c2ccccc2)=N/C1=C\c1ccc2ncsc2c1
> 10	> 10	16		791		328		8.24	560	COC(=O)[C@@H](NC1=N/C(=C\c2ccc3ncsc3c2)C(=O)N1)C(C)C
> 10	> 10	13	110	413	4	145	987	2.68		CCOC[C@@H](CC(C)C)NC1=N/C(=C\c2ccc3ncsc3c2)C(=O)N1
> 10	> 10	18	121	2100		1720		9.97		CC(C)(C)OC[C@H](NC1=N/C(=C\c2ccc3ncsc3c2)C(=O)N1)c1ccccc1
